Test results published in US9855225B2, “Cannabinoid receptor treatments” (TEMPLE UNIVERSITY OFFICE OF TECHNOLOGY TRANSFER, priority 2011, dated 2018).
Values joined by “and” are separate entries in the source; they are usually repeats but may differ in a detail not shown here. Equal values may be shown once. Read-outs that look alike come from different tables or passages of the source.

Key:
[1] = tested on: C57BL/6 responder splenocytes from WT mice; test: One-way mixed lymphocyte reaction (MLR), [3H]-thymidine incorporation, wild-type responder splenocytes; format: cell-based, mouse; settings: for Inhibition of the MLR: WT splenocytes, agonist 16 and 32 μM, 3 h
Protocol: The MLR assay is a common method used to evaluate the cellular immune responses from two different individuals or animals and is considered to be an in vitro correlate of skin and organ transplant rejection. Lymphocytes from two different populations can be incubated together in which the T cells recognize the foreign cells from the other strain, become activated, proliferate and take up tritiated thymidine ([^3H]-thymidine). Results from this assay (Examples 1, 2 and 4) are expressed as a Suppression Index (SI), where untreated spleen cells are given a value of 1.00 (100%), and responses of cultures receiving treatment with cannabinoids are calculated as: […]
All SI data were transformed to normalized ranks to accommodate non-normality of the data. ANOVA was used to test for significant differences between groups.
The aim of the next series of experiments was to test the hypothesis that suppression of proliferation in the MLR is a CB2 receptor-mediated function.

[2] = tested on: IL-2 release from splenocytes from CB2R-/- KO mice; test: IL-2 release in MLR supernatants by ELISA, CB2R-/- KO splenocytes; settings: supernatants at 24 hours
splenic Tregs = test: Splenic Tregs of treated skin graft recipient mice by flow cytometry; format: in vivo, mouse
Protocol: O-1966 treated mice that received skin grafts have an increased percentage of splenic Tregs. (FIGS. 13 and 14): Spleen cells taken from the animals described in C1 above were harvested from animals, and a sample was immediately analyzed by flow cytometry. Another sample was placed in culture for 48 hours. […] Cells that were harvested after 48 hours in the MLR had 4.75% Tregs in the vehicle treated mice and 9.7% Tregs in the O-1966 treated mice.

[3] = tested on: splenocytes from skin graft recipient mice; test: Ex vivo MLR of splenocytes from treated skin graft recipient mice; parameters: species or system mouse; settings: 5 mg/kg every other day 14 days; spleens day 14; 48 hr in culture
Protocol: Splenocytes from O-1966 treated skin graft recipient mice have decreased proliferation in an ex vivo MLR. (FIG. 12). Groups of mice received skin grafts and were treated with either 5 mg/kg O-1966 or vehicle every other day for 14 days. Spleens were removed on day 14 and placed in an MLR assay. The cells were restimulated in vitro with splenocytes from an incompatible mouse strain, but they received no additional treatment with a cannabinoid in vitro.

CD3+ T-cell population = test: mRNA expression (microarray/qPCR) in CD3+ T-cells from the MLR; format: cell-based, mouse; settings: 32 μM/ml, 18 hours, vs vehicle
Protocol: This experiment was carried out to screen for molecules that are modulated by exposure of mouse spleen cells to the CB2 receptor agonist (FIG. 6). The experiment used a commercial microarray (Qiagen) that tests the levels of 89 different mRNAs. Spleen cells were placed in culture to carry out a standard Mixed Lymphocyte Reaction (MLR) assay. Experimental wells received 32 μM/ml of the selective CB2 receptor agonist, O-1966, and control wells received vehicle (0.4% ethanol). […] The decrease in CD40L and Cyclin D3 mRNA was significant because CD40L is an activation molecule for T-cells, and Cyclin D3 is a molecule involved in cell division. T-cell activation and division are decreased after exposure to the selective CB2 receptor agonist.

[4] = tested on: CD3+ cells (T cells) and CD11b+ cells; format: cell-based, mouse; settings: 1-32 μM, 3 hours, fractions added back
IL-10 release in the MLR = test: IL-10 release in the MLR; format: cell-based, mouse; settings: 32 μM, supernatants after 24 hours
Protocol: An MLR assay was performed in which experimental wells received 32 μM/ml of O-1966 and control wells received vehicle (FIGS. 7 and 9). Supernatants were collected after 24 hours. […] IL-10 is an immunosuppressive cytokine, so its rise induced by the CB2 receptor agonist provides a mechanism of action for the cannabinoid in suppressing the MLR. In a separate MLR some wells received 1.6 μg/ml of anti-IL-10 antibody. Wells that received no antibody and 32 μM 0-1966 had 90% suppression of proliferation compared to untreated cells. Cells that were treated with anti-IL-10 antibody and 32 μM O-1966 had 43% suppression of proliferation compared to wells that received anti-IL-10 antibody only.

Tregs = Tregs (Foxp3+ CD4+) in the MLR by flow cytometry; format: cell-based, mouse; settings: 48 hours
Protocol: An MLR assay was performed in which experimental wells received 32 μM/ml of O-1966 and control wells received vehicle (FIG. 8). At 48 hours, cells were harvested and stained for expression of Foxp3 and CD4 (Cells that are double positive for these two markers are considered Tregs). Cells were analyzed for marker expression by flow cytometry. Wells that received no treatment had 2.1%+/−0.14 Tregs compared to wells that were treated with 32 μM O-1966 which had 4.3%+/−0.27 Tregs. These differences were statistically significant, as 20,000 cells were counted in each group. Tregs are a relatively newly recognized subset of T-cells that suppress T-cell immune responses. Thus, an increase their number induced by the CB2 receptor agonist provides a second mechanism by which the cannabinoid is altering T-cell responsiveness in the MLR assay.
An MLR was performed in which some wells received 1.6 μg/ml of anti-IL-10 antibody (FIG. 10). Cells were harvested at 48 hours and stained as described under #3 above for Tregs. Cells that received 32 μM O-1966 and no anti-IL-10 antibody had 4.3%+/−0.28 Tregs. Wells that received only anti-IL-10 antibody and no O-1966, had 1.7%+/−0.16 Tregs. Wells that received anti-IL-10 antibody in addition to 32 μM O-1966 had 2.9%+/−0.25 Tregs.

[5] = tested on: C57Bl/6 mice with skin grafts from C3HeB/FeJ mice; test: Skin graft rejection in mice; format: in vivo, mouse; settings: 5 mg/kg intraperitoneal every other day for 14 days
Protocol: Groups of C57Bl/6 mice received skin grafts from C3HeB/FeJ mice that are histoincompatible (FIG. 11). Starting one hour before grafting mice were treated by intraperitoneal injection with either 5 mg/kg of the CB2 receptor agonist, O-1966, or vehicle. (Volumes were based on weight. but were usually approximately 0.2 ml.) every other day for 14 days, and monitored for graft rejection. Mice that received O-1966 treatment had viable grafts 2.7 days longer than vehicle treated mice, which was statistically significant.

[6] = Spleen weight of treated skin graft recipient mice; format: in vivo, mouse; settings: Day 14, 5 mg/kg every other day
Source text: Spleens were removed on Day 14 and weighed. Spleens from vehicle treated mice were 0.093+/−0.01 grams and spleens from O-1966 mice were 0.077+/−0.006 grams. Spleens of untreated mice average 0.072+/−0.009 grams (historical data). The average spleen weight index ([spleen weight/body weight]×100) was 0.46% in vehicle treated mice and 0.38% in O-1966 treated mice.

MLR culture cells = test: Cell viability in MLR cultures by flow cytometry (LIVE/DEAD stain); format: cell-based, mouse; settings: parallel MLR cultures
Protocol: Lastly, cultures were run in parallel with each experimental MLR and tested by flow cytometry to assess viability using LIVE/DEAD® Fixable Dead Cell Stain Kit (Molecular Probes, Inc.; Eugene, Oreg.). Cells (1×10^6) from the culture were resuspended in 1 ml FCM Staining Buffer and incubated for 30 min at room temperature with 1 μl dead cell stain. Cells were washed twice and resuspended in FCM staining buffer and analyzed using an LSRII (BD Biosciences) flow cytometer, and the data were analyzed using FACSDiva™ software (BD Biosciences).

[7] = tested on: C57BL/6 responder splenocytes from WT mice; settings: added to unfractionated murine spleen cells; previously shown by the inventors; cited from earlier work
mouse splenocytes = settings: primary and secondary in vitro assays; earlier work of the inventors; cited from earlier work

## CCCn1c(C)c(C(=O)c2cccc3ccccc23)c2ccccc21 [JWH-015, reference compound]
[1]
  Inhibition of the MLR: markedly inhibited the MLR

## CCCCCCC(C)(C)c1cc(OC)c(C2(O)CCCC(C)C2)c(OC)c1 (centres unmarked) [O-1966, 1-{4-(1,1-Dimeyhyl-heptyl)-2,6-dimethoxy-phenyl}-3-methyl-cyclohexanol]
[2]
  Inhibition of IL-2 release: without effect
Splenic Tregs; analyzed immediately after sacrifice, day 14, 5 mg/kg
  Tregs (CD4+, Foxp3+) of the CD4 cells: 32.2%
Splenic Tregs; ex vivo MLR 48 hours, 5 mg/kg in vivo
  Tregs after 48 hours in the MLR: 9.7%
[3]
  Decreased proliferation in ex vivo MLR compared to vehicle treated mice: 50%
CD3+ T-cell population
  CD40L mRNA expression: −4.60 fold
  Cyclin D3 mRNA expression: −4.10 fold
  IL-10 mRNA expression: 4.74 fold
  Sla2 mRNA expression: 4.75 fold
  Socs5 mRNA expression: 4.37 fold
[4]
  SI values, CD3+ treated versus CD11b+ treated fractions: selectively reduced the SI values for cultures in which the CD3^+ cells were treated
IL-10 release in the MLR
  IL-10 release in the MLR: 96.75 pg/mL
  Increase of IL-10 release in the MLR: 2.46 fold
Tregs; 32 μM O-1966 plus 1.6 μg/ml anti-IL-10 antibody
  Tregs (Foxp3+ CD4+): 2.9%+/−0.25
Tregs; 32 μM, no anti-IL-10 antibody
  Tregs (Foxp3+ CD4+): 4.3%+/−0.27 and 4.3%+/−0.28
[5]
  Viable grafts longer than vehicle treated mice: 2.7 days
[1]; 32 μM plus 1.6 μg/ml anti-IL-10 antibody, compared to antibody only
  Suppression of proliferation: 43%
[1]; 32 μM, no antibody, compared to untreated cells
  Suppression of proliferation: 90%
[1]
  Inhibition of the MLR: markedly inhibited the MLR
[6]
  Average spleen weight index ([spleen weight/body weight]×100): 0.38%
  Spleen weight: 0.077+/−0.006 grams
MLR culture cells
  Effect on cell death (live versus dead cells): did not affect cell death

## CCCCCc1cc(O)c2c(c1)OC(C)(C)[C@@H]1CCC(C)=C[C@@H]21 [THC (Marinol), Δ^9-tetrahydrocannabinol]
[7]
  Inhibition of the MLR: inhibit the MLR
Mouse splenocytes
  Immunosuppression in plaque-formation cell assays: induce dose-related immunosuppression

## CCCCC/C=C\C/C=C\C/C=C\C/C=C\CCCC(=O)NCCO [anandamide, arachidonoylethanolamide]
Mouse splenocytes
  Immunosuppression in plaque-formation cell assays: induce dose-related immunosuppression

## SR144528 [reference compound]
[1]; antagonist 32-320 μM added 2 h before agonist (16 and 32 μM)
  Block of suppression of the MLR by JWH-015 and O-1966: blocked suppression
